Measured values reported in article PMC8718961, “The CbbQO-type rubisco activases encoded in carboxysome gene clusters can activate carboxysomal form IA rubiscos” (The Journal of Biological Chemistry, 2021).
Each block holds one compound with its values, some of them ahead of it.

What was measured:
[1] = biological target: A. ferrooxidans carboxysomal form IA^C rubisco with N472H in the large subunit (Acidithiobacillus ferrooxidans ATCC23270)
[2] = biological target: A. ferrooxidans carboxysomal form IA^C rubisco with the last three residues of the large subunit changed from VNR to AHK (Acidithiobacillus ferrooxidans ATCC23270)
[3] = biological target: T1, HnLS (form IA^C carboxysomal rubisco) (Halothiobacillus neapolitanus, UniProt O85040); assay: inhibited ECM-CABP (ECMC) complex, reactivation by CbbQO activase, coupled spectrophotometric rubisco assay; format: biochemical; conditions: 20 mM NaHCO3, Mg2+, 25 °C; PEG 3350; active site, tight-binding transition-state analog
T1 construct: gene cbbL; recombinant E. coli BL21(DE3), pET30bHnLS (NdeI/HindIII); large and small subunits; anion exchange and size exclusion
T1 sequence (O85040 whole entry): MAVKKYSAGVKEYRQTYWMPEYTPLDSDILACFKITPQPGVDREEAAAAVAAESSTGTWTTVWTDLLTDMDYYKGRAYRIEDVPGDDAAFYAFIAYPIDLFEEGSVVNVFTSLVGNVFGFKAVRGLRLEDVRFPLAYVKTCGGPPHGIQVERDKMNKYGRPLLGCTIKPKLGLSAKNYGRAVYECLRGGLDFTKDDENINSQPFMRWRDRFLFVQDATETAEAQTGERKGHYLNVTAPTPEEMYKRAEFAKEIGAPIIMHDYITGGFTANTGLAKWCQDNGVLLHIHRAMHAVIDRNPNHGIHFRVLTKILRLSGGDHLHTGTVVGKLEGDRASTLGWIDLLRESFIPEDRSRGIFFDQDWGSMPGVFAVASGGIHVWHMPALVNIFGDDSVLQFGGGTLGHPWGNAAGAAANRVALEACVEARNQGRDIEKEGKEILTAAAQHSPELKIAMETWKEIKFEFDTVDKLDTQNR
T1 sequence (P45686 whole entry partner): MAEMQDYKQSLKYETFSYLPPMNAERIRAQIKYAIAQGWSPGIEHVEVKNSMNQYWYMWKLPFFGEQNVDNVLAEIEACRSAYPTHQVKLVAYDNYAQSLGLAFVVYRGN

[4] = biological target: T2, AfL2S2 (form IA^C carboxysomal rubisco) (Acidithiobacillus ferrooxidans, UniProt B7JB30); assay: as above; format: biochemical; conditions: 20 mM NaHCO3, Mg2+, 25 °C; PEG 3350; active site, tight-binding transition-state analog
T2 construct: gene cbbL1; recombinant E. coli BL21(DE3); large and small subunits; anion exchange and size exclusion
T2 sequence (B7JB30 whole entry): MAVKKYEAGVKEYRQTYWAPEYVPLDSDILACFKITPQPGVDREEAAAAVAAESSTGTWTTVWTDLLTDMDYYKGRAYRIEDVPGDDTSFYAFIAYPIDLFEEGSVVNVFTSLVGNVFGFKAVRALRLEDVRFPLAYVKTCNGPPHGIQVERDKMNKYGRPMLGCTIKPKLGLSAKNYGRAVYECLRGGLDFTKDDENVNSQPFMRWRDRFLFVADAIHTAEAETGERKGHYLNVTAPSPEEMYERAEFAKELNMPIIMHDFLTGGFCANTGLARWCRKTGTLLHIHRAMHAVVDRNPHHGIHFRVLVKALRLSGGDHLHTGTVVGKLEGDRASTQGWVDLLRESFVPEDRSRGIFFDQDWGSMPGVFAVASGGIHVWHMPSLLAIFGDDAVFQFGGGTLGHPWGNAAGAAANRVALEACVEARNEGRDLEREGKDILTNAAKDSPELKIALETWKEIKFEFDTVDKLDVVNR
T2 sequence (B7JB29 1-110 partner): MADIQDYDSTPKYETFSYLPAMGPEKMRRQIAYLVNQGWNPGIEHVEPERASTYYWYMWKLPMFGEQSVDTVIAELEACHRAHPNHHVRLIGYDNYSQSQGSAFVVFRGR

[5] = biological target: T3, AfL2S2 (form IA^C carboxysomal rubisco) (Acidithiobacillus ferrooxidans, UniProt B7JB30, V471A/N472H/R473K); assay: as above; format: biochemical; conditions: 20 mM NaHCO3, Mg2+, 25 °C; PEG 3350; active site, tight-binding transition-state analog; printed as VNR C terminus substituted with AHK
T3 construct: gene cbbL1; recombinant E. coli BL21(DE3); large and small subunits; anion exchange and size exclusion
T3 sequence (B7JB30 whole entry V471A/N472H/R473K): as the sequence (B7JB30 whole entry) above, with V471A, N472H, R473K counted along it
T3 sequence (B7JB29 entry or part of it, stated change not applied, further chain): as the sequence (B7JB29 1-110 partner) above

[6] = biological target: T4, AfL2S2 (form IA^C carboxysomal rubisco) (Acidithiobacillus ferrooxidans, UniProt B7JB30, N472H); assay: as above; format: biochemical; conditions: 20 mM NaHCO3, Mg2+, 25 °C; PEG 3350; active site, tight-binding transition-state analog
T4 construct: gene cbbL1; recombinant E. coli BL21(DE3); large and small subunits; anion exchange and size exclusion
T4 sequence (B7JB30 whole entry N472H): as the sequence (B7JB30 whole entry) above, with N472H counted along it
T4 sequence (B7JB29 entry or part of it, stated change not applied, further chain): as the sequence (B7JB29 1-110 partner) above

[7] = biological target: T5, AfQ3O3 (carboxysomal CbbQO rubisco activase) (Acidithiobacillus ferrooxidans, UniProt B7JB17); assay: ATPase, coupled spectrophotometric assay; format: biochemical; conditions: 0.27 µM oligomer, 25 °C
T5 construct: gene p30; recombinant E. coli BL21(DE3), pHue and pBad33 (ubiquitin-type) vectors; CbbQ hexamer with CbbO; with CbbO protein (von Willebrand factor A domain, rubisco activase adaptor)
T5 sequence (B7JB16 entry or part of it): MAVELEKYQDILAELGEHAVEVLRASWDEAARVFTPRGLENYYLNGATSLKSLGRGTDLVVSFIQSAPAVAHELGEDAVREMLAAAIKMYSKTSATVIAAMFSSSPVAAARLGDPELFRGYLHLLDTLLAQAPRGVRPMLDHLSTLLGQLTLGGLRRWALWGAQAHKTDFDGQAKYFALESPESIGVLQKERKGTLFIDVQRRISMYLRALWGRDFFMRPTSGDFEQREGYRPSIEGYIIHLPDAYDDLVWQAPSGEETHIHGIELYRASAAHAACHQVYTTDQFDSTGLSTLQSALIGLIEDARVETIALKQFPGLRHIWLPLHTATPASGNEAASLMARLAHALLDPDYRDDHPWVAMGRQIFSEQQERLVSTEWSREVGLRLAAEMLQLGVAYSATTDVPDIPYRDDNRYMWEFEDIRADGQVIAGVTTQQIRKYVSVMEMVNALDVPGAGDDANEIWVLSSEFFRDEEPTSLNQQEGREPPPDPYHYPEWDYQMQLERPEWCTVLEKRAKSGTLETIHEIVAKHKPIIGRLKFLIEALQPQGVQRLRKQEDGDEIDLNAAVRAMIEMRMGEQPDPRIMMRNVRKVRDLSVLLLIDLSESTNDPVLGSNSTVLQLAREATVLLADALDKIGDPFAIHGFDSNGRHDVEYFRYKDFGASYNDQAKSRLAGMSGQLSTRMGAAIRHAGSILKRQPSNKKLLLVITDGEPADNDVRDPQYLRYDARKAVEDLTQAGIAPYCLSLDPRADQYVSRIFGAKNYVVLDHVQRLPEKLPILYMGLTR
T5 sequence (B7JB17 entry or part of it): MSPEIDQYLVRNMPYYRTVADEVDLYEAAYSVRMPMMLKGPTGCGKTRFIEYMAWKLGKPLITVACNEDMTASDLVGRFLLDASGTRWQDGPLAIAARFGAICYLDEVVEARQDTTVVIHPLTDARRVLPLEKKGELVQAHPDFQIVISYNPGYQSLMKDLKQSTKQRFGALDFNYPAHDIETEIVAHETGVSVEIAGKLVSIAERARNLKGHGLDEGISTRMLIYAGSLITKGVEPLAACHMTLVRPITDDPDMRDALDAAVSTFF

[8] = biological target: T6, AfQ1O1 (form IA^Q-associated CbbQO rubisco activase) (Acidithiobacillus ferrooxidans, UniProt B7JA26); assay: ATPase, coupled spectrophotometric assay; format: biochemical; conditions: 0.27 µM oligomer, 25 °C
T6 construct: gene cbbQ-1; recombinant E. coli BL21(DE3), pHueAfCbbQ1 and pBad33UbAfcbbO1; CbbQ hexamer with CbbO; with CbbO protein (von Willebrand factor A domain, rubisco activase adaptor)
T6 sequence (B7JA26 1-267): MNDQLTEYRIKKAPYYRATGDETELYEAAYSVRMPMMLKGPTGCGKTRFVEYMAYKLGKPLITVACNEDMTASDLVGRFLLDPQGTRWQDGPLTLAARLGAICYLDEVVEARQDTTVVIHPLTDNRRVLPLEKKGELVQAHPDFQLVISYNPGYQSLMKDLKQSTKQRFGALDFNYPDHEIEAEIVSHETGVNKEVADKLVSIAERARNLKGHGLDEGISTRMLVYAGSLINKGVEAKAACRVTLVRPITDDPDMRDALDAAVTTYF
T6 sequence (B7JA27 1-772 partner): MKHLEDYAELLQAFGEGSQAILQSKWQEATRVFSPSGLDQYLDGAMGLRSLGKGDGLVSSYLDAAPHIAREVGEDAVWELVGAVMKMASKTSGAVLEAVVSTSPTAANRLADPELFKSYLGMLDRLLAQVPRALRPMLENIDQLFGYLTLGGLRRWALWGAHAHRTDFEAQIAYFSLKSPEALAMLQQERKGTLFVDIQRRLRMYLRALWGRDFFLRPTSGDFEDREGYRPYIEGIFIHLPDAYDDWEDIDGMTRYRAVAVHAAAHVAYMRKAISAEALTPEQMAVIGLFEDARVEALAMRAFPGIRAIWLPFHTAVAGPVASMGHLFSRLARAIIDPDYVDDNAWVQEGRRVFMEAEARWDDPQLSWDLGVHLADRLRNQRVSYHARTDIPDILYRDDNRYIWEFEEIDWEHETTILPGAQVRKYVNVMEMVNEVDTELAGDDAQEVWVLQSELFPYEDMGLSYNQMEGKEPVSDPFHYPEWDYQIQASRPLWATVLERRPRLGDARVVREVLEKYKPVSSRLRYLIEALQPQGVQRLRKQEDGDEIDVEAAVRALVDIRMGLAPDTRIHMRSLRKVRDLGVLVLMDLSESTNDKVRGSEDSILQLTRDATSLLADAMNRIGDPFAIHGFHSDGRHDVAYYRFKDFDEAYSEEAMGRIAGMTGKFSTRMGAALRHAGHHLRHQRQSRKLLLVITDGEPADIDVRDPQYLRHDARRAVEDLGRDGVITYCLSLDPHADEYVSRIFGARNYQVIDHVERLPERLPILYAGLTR

[9] = biological target: A. ferrooxidans carboxysomal form IA^C rubisco with N472H in the large subunit (Acidithiobacillus ferrooxidans ATCC23270); remark: listed apart in the source
[10] = biological target: A. ferrooxidans carboxysomal form IA^C rubisco with the last three residues of the large subunit changed from VNR to AHK (Acidithiobacillus ferrooxidans ATCC23270); remark: listed apart in the source
[11] = biological target: T3, AfL2S2 (form IA^C carboxysomal rubisco); assay: spontaneous RuBP release from ER complex; format: biochemical; conditions: apoenzyme with RuBP; 25 °C; active site; printed as VNR C terminus substituted with AHK
[12] = biological target: T7, AfL1S1 (form IA^Q rubisco) (Acidithiobacillus ferrooxidans, UniProt B7JA24); assay: RuBP release rate from apo-rubisco-RuBP (ER) complex, carboxylation time course; format: biochemical; conditions: apoenzyme with 0.4 mM RuBP; assay 50 mM NaHCO3, 1 mM RuBP, 25 °C; active site
T7 construct: gene cbbL2; recombinant E. coli BL21(DE3); large and small subunits; anion exchange and size exclusion
T7 sequence (B7JA24 whole entry): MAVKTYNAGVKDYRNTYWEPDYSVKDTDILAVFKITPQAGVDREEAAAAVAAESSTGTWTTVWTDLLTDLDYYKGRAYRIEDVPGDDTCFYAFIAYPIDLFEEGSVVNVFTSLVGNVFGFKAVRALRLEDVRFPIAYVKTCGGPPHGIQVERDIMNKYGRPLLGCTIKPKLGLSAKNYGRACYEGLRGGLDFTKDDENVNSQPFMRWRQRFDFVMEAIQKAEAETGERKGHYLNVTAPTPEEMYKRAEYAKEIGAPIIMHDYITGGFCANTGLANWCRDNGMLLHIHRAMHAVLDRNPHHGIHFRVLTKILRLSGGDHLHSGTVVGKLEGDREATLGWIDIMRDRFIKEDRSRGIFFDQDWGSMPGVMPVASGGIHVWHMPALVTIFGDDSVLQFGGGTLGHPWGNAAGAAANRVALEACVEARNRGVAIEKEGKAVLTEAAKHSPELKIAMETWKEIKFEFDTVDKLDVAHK
T7 sequence (B7JA25 1-118 partner): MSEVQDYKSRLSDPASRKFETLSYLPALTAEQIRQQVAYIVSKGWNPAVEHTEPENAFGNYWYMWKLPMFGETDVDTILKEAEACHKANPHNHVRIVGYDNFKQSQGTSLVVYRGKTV

[13] = biological target: T1, HnLS (form IA^C carboxysomal rubisco); assay: as above; format: biochemical; conditions: apoenzyme with 0.4 mM RuBP; assay 50 mM NaHCO3, 1 mM RuBP, 25 °C; active site
[14] = biological target: T4, AfL2S2 (form IA^C carboxysomal rubisco); assay: spontaneous RuBP release from ER complex; format: biochemical; conditions: apoenzyme with RuBP; 25 °C; active site
[15] = biological target: T2, AfL2S2 (form IA^C carboxysomal rubisco); assay: RuBP release rate from apo-rubisco-RuBP (ER) complex, carboxylation time course; format: biochemical; conditions: apoenzyme with 0.4 mM RuBP; assay 50 mM NaHCO3, 1 mM RuBP, 25 °C; active site
SynLS (form IB rubisco) = biological target: T8, SynLS (form IB rubisco) (Synechococcus elongatus, UniProt P00880); assay: as above; format: biochemical; conditions: apoenzyme with 0.4 mM RuBP; assay 50 mM NaHCO3, 1 mM RuBP, 25 °C; active site
T8 construct: gene cbbL; large and small subunits

Rca activity: activation of CABP-inhibited rubisco (ECMC), coupled spectrophotometric rubisco assay, 5% v/v PEG, 20 mM NaHCO3; against wildtype AfL2S2 [1]: 6 fold
Rca activity: activation of CABP-inhibited rubisco (ECMC), coupled spectrophotometric rubisco assay, 5% v/v PEG, 20 mM NaHCO3; against wildtype AfL2S2 [2]: 6 fold
Compound: A. ferrooxidans CbbQ1-CbbO1 rubisco activase complex (form IA^Q associated)

Compound: O=C(O)[C@@](O)(COP(=O)(O)O)[C@H](O)[C@H](O)COP(=O)(O)O (mixture of isomers) [carboxy-arabinitol 1,5-bisphosphate]
inhibited ECM-CABP (ECMC) complex, reactivation by CbbQO activase, coupled spect [3]: HnQO was able to remove CABP from its cognate form IA^C rubisco HnLS
inhibited ECM-CABP (ECMC) complex, reactivation by CbbQO activase, coupled spect [4]: ability to remove the transition state analog CABP from the A. ferrooxidans form IA^C (AfL2S2) holoenzyme
inhibited ECM-CABP (ECMC) complex, reactivation by CbbQO activase, coupled spect [5]: mutation at the C terminus of AfL2S2 enhances activation of ECMC complexes by Q1O1
inhibited ECM-CABP (ECMC) complex, reactivation by CbbQO activase, coupled spect [6]: mutation at the C terminus of AfL2S2 enhances activation of ECMC complexes by Q1O1

Compound: Nc1ncnc2c1ncn2[C@@H]1O[C@H](COP(=O)(O)OP(=O)(O)OP(=O)(O)O)[C@@H](O)[C@H]1O [ATP]
ATPase, coupled spectrophotometric assay [7]: The ATPase activity of the purified AfQ3O3 complex was similar to that of the AfQ1O1
ATPase, coupled spectrophotometric assay [8]: The ATPase activity of the purified AfQ3O3 complex was similar to that of the AfQ1O1

Rca activity: activation of CABP-inhibited rubisco (ECMC), coupled spectrophotometric rubisco assay, 13% v/v PEG, 20 mM NaHCO3; against wildtype AfL2S2 [9]: 30 % increase
Rca activity: activation of CABP-inhibited rubisco (ECMC), coupled spectrophotometric rubisco assay, 13% v/v PEG, 20 mM NaHCO3; against wildtype AfL2S2 [10]: 60 % reduction
Compound: A. ferrooxidans CbbQ3-CbbO3 rubisco activase complex (carboxysomal, form IA^C associated)

Compound: O=C(COP(=O)(O)O)[C@H](O)[C@H](O)COP(=O)(O)O [ribulose 1,5-bisphosphate]
spontaneous RuBP release from ER complex [11]: displayed similar carboxylation kinetics and spontaneous RuBP release under our assay conditions
RuBP release rate [12]: (AfL1S1) formed a stable binary complex with RuBP and had the slowest inhibitor release rate
RuBP release rate [13]: The RuBP release rate was derived from the ER time courses
spontaneous RuBP release from ER complex [14]: displayed similar carboxylation kinetics and spontaneous RuBP release under our assay conditions
RuBP release rate [15]: The RuBP release rate was derived from the ER time courses
RuBP release rate (SynLS (form IB rubisco)): the very loose RuBP-binding phenotype of the cyanobacterial form IB SynLS rubisco
